# Measured values reported in US20180055049A1, “USE OF PRO-[…] UK-2A FOR CONTROL OF BROWN ROT DIESEASE ON STONE AND POME FRUITS” (Dow AgroSciences LLC, priority 2016, published 2018).
# What was measured:
# Type in all cases: in vivo
# Monilinia spp. (MONILA) [1] = test: Field trial 1: brown rot of flowers and branches, apricot, northeastern Italy; conditions: for % Incidence, Branches: Trial 1, branches, 24 DAA, untreated 23.50; for % Incidence, Flowers: Trial 1, flowers, 8 DAA, untreated 21.00
# Procedure: (§1) A fungicidal treatment containing Compound I for use against brown rot diseases on stone fruits was carried out in three field trials. The first two trials were carried out in Italy and France in order to investigate the effectiveness of Compound 1 against brown rot of flowers. These two trials were designed as randomized complete block with four replications (plots respectively of 35 and 50 m^2) and were carried out in typical areas for apricot and peaches cultivation, respectively, in northeastern Italy and southern France. Trials were conducted under EPPO PP1/38(2), PP1/135(3), PP1/152(3), PP1/181(3), PP1/239(1) and related guidelines. Trials were sprayed three times during the flowering period, using a backpack mist blower equipment calibrated to apply product respectively at 600 and 700 L/ha of water volume. […] MONILA disease was evaluated on flowers on a sample of ten pre-marked branches per tree, aged one year. The number of infected flowers was counted and consequently the percent incidence was then calculated. A second assessment was then made on 50 small branches randomly selected in the two 2 central trees for each plot, counting the number of diseased small branches and then the % incidence was calculated.
# Monilinia spp. (MONILA) [2] = test: Field trial 2: brown rot of flowers and branches, peaches, southern France; conditions: for % Incidence, Branches: Trial 2, branches, 22 DAA, untreated 30.60; for % Incidence, Flowers: Trial 2, flowers, 8 DAA, untreated 55.30
# Procedure: as §1
# [3] = test system: Monilinia fructicola (MONIFC); test: Field trial 3: brown rot of fruits, peach, Ravenna, northeastern Italy; conditions: Trial 3, fruits, 200 g ai/Ha
# Procedure: A third trial was conducted in Italy in order to investigate the effectiveness of Compound I against brown rot of fruits. This trial was designed as randomized complete block with four replications and plots of 49.5 m^2 and was carried out in a typical area for peach cultivation in the province of Ravenna in northeastern Italy. The trial was conducted under EPPO PP1/222(1), PP1/135(2), PP1/152(3), PP1/181(3), PP1/225(1), PP1/239(1) and related guidelines. Products were sprayed twice during fruit ripening respectively at BBCH 79-81 and 81-85 of plant grow stage using a self-propelled air-assisted multi plot sprayer designed for efficacy trials with four independent series of 8 nozzles (Albutz, ATR 80 Yellow) calibrated to apply a spray volume of 1,000 L/ha at a pressure of 450 KPa according to the orchard canopy.
# The pathogen was certificated to be Monilinia fructicola (MONIFC) by means of an immunoassay followed by a PCR assay on material collected (mummies) from the trial. The brown rot damage at harvest was evaluated on l00 randomly picked fruits per plot. Visual healthy samples of 60 fruits per plot were placed in alveolus plates and kept for 5 days in cold storage. Afterwards the samples were maintained for 14 days at about 20° C. (shelf life period). Several assessments were made in order to check the development of disease during the shelf life simulation. […]
smiles,measurement,setting,value
COc1ccnc(C(=O)N[C@H]2COC(=O)[C@H](Cc3ccccc3)[C@@H](OC(=O)C(C)C)[C@H](C)OC2=O)c1OCOC(=O)C(C)C [Compound I],"% Incidence, Branches",Monilinia spp. (MONILA) [1]; 75 g ai/Ha,22.50%
same,"% Incidence, Branches",Monilinia spp. (MONILA) [1]; 100 g ai/Ha,24.50%
same,"% Incidence, Branches",Monilinia spp. (MONILA) [1]; 150 g ai/Ha,11.00%
same,"% Incidence, Flowers",Monilinia spp. (MONILA) [1]; 75 g ai/Ha,11.25%
same,"% Incidence, Flowers",Monilinia spp. (MONILA) [1]; 100 g ai/Ha,4.75%
same,"% Incidence, Flowers",Monilinia spp. (MONILA) [1]; 150 g ai/Ha,3.25%
same,"% Incidence, Branches",Monilinia spp. (MONILA) [2]; 75 g ai/Ha,11.98%
same,"% Incidence, Branches",Monilinia spp. (MONILA) [2]; 100 g ai/Ha,9.93%
same,"% Incidence, Branches",Monilinia spp. (MONILA) [2]; 150 g ai/Ha,4.20%
same,"% Incidence, Flowers",Monilinia spp. (MONILA) [2]; 75 g ai/Ha,24.00%
same,"% Incidence, Flowers",Monilinia spp. (MONILA) [2]; 100 g ai/Ha,16.70%
same,"% Incidence, Flowers",Monilinia spp. (MONILA) [2]; 150 g ai/Ha,15.40%
same,"% Incidence, Fruits","[3]; 7 DAA, untreated 31.3",15.0%
same,"% Incidence, Fruits","[3]; 26 DAA, untreated 32.5",16.8%
